The nature of this data set: solvent given as SMILES.
Where [1] appears, read: in O=P(c1ccccc1)(c1ccccc1)c1ccccc1Oc1ccccc1P(=O)(c1ccccc1)c1ccccc1.

Several values for one entry are separate records, joined by “and”; a condition that tells them apart may be missing. Identical values can stand only once.

For `CCCN1/C(=C/C=C(/C=C/C2=[N+](CCC)c3ccccc3C2(C)C)c2cc[n+](C)cc2)C(C)(C)c2ccccc21`, the emission maximum was found to be 658 nm (in CO), 657 nm (in CS(C)=O) and 658 nm (in O).
Regarding `Cc1cc2c3ccccc3oc2c2c1c1ccccc1n2-c1ccc(C#N)cc1`, the emission maximum is, setting by setting: (in CCOC(C)=O) 379 nm; (in CS(C)=O) 440 nm; (in ClCCl) 420 nm.
Compound `CC(C)(C)c1ccc(Oc2cc3c4c(cc(Oc5ccc(C(C)(C)C)cc5)c5c6c(Oc7ccc(C(C)(C)C)cc7)cc7c8c(cc(Oc9ccc(C(C)(C)C)cc9)c(c2c45)c86)C(=O)N(c2ccccc2)C7=O)C(=O)N(c2ccccc2)C3=O)cc1` had an emission maximum (in ClC(Cl)Cl) of 617 nm.
`FC(F)(F)c1ccc(/C=C2\C=C(c3ccccc3)C=C2c2ccccc2)cc1`: for the setting “in C1CCOC1”, the emission maximum worked out at 516 nm.
With `Cc1cc(C)c(B2c3cc(C(C)(C)C)ccc3-c3c(-c4ccccc4)ccc4cc(C(C)(C)C)cc2c34)c(C)c1`, the emission maximum (in C1CCCCC1) stood at 470 nm.
In the case of `CC1(C)c2ccccc2N(c2ccc3c(c2)C(c2ccccc2)(c2ccccc2)c2cc(N4c5ccccc5C(C)(C)c5ccccc54)ccc2S3(=O)=O)c2ccccc21`, the emission maximum (in Cc1ccccc1) is reported as 448 nm.
As to `CC[n+]1c(-c2ccccc2)c2cc(NC(N)=O)ccc2c2ccc(N)cc21`, the emission maximum (in O) is on record as 601 nm.
For the compound `CN(C)c1ccc2[c](c1)[Sn]([CH3])([CH3])[C]1=CC(=[N+](C)C)C=CC1=C2`, the emission maximum (in O) is 628 nm.
Same read-out and setting: to `N[C@@H](Cc1ccc(O)cc1)C(=O)O` belongs 300 nm.
Regarding `Cc1cc(N2c3ccccc3C(C)(C)c3ccccc32)ccc1-c1cc(-c2ccc(N3c4ccccc4C(C)(C)c4ccccc43)cc2C)ncn1`, the emission maximum was 477 nm (in Cc1ccccc1) and 477 nm under setting [1].
Turning to `CCCCCCCCCc1c2ccccc2cc2c1oc1c3oc4c5oc6cc7ccccc7cc6c5c5ccccc5c4c3c3ccccc3c21`, the emission maximum (in C1CCOC1) was found to be 428 nm.
For `Cc1ccc(N(c2ccc(C)cc2)c2ccc3c(c2)c2cc(N(c4ccc(C)cc4)c4ccc(C)cc4)ccc2n3-c2ccc(-c3nc4cccc5c4n3-c3ccccc3C5(C)C)cc2)cc1`, the emission maximum is on record as 496 nm (in Cc1ccccc1) and 491 nm under setting [1].
For the compound `Cc1c2c(c(C)c3ccccc13)-c1c-2ccc2nc3ccccc3nc12`, the emission maximum (in ClC(Cl)Cl) was found to be 648 nm.
For the compound `CC1=CC(C)=[N+]2C1=C(c1c3ccccc3c(-c3ccccc3)c3ccccc13)c1c(C)cc(C)n1[B-]2(F)F`, the emission maximum is on record as 508 nm (in CC#N); 514 nm (in CCCCCC); 512 nm (in CCO); 515 nm (in CN(C)C=O); 519 nm (in Cc1ccccc1); 515 nm (in ClCCl).
As to `COc1ccc2n1[B-](F)(F)[N+]1=C(SC#N)C=CC1=C2c1ccccc1`, the emission maximum reads like this: (in CC#N) 527 nm; (in CCCCCC) 532 nm; (in CCOC(C)=O) 529 nm; (in CO) 526 nm; (in ClCCl) 531 nm.
Consider `CCOC(=O)c1cc(C(=O)NCc2ccccc2)c2ccc(N(C)C)cc2n1`, for which, under “in CCO”, the emission maximum is 586 nm.
For `COc1cc(N(c2ccc(C=C(C#N)C#N)c(OC)c2)c2ccc(C=C(C#N)C#N)c(OC)c2)ccc1C=C(C#N)C#N`, the emission maximum is, setting by setting: (in C1COCCO1) 521 nm; (in CC#N) 566 nm; (in CC(C)=O) 557 nm; (in CCOC(C)=O) 532 nm; (in CN(C)C=O) 575 nm; (in CO) 551 nm. The emission maximum reads like this: (in Cc1ccccc1) 500 nm; (in ClC(Cl)Cl) 514 nm; (in ClCCl) 531 nm.
`N#Cc1nn(-c2ccccc2)nc1N1CCCC1`: the emission maximum (in CC#N) amounted to 423 nm.
In turn, `CC(=O)OCCN1C(=O)c2cccc3c(Oc4ccc(C#N)cc4)ccc(c23)C1=O` yielded an emission maximum (in ClC(Cl)Cl) of 410 nm.
`CC1(C)C(/C=C/C=C/C=C/C=C2/N(c3ccc(S(=O)(=O)[O-])cc3)c3ccc(S(=O)(=O)[O-])cc3C2(C)C)=[N+](c2ccc(S(=O)(=O)[O-])cc2)c2ccc(S(=O)(=O)[O-])cc21` showed an emission maximum (in CO) of 782 nm and an emission maximum (in O) of 779 nm.
Consider `N#Cc1cccc(N)c1`, for which the emission maximum worked out at 343 nm (in C1CCCCC1); 369.45 nm (in CC#N); 339.87 nm (in CCCCCC); 384 nm (in CCO); 392 nm (in O); 380 nm (in OCC(F)(F)F).
Turning to `CCCCCCc1cc2c(s1)-c1sc(CCCCCC)cc1P(c1ccccc1)(c1ccccc1)=[O+][B-]2(c1c(C)cc(C)cc1C)c1c(C)cc(C)cc1C`, for the setting “in C1CCOC1”, the emission maximum stood at 536 nm.
For the setting “in Cc1ccccc1”, `Cc1ccc2c(c1)c1cc(C)ccc1n2-c1c(C#N)c(-n2c3ccc(C)cc3c3cc(C)ccc32)c(-n2c3ccc(C)cc3c3cc(C)ccc32)c(C#N)c1-n1c2ccc(C)cc2c2cc(C)ccc21` returned an emission maximum of 561 nm.
For the setting “in O”, `CC(=O)Nc1ccc2c(c1)c(=O)c1ccccc1n2CCCCCC(=O)O` gave an emission maximum of 450 nm.
For `CCC[n+]1ccc(/C=C/c2ccc(N(C)C)cc2)cc1`, the emission maximum was determined as 557 nm (in C1COCCO1); 571 nm (in CC(C)O); 576 nm (in CCCCO); 576 nm (in CCCO); 576 nm (in CCO); 579 nm (in CO). In addition, the emission maximum (in CS(C)=O) came out at 589 nm, the emission maximum (in ClC(Cl)Cl) was found to be 560 nm, the emission maximum (in ClCCl) was 560 nm and the emission maximum (in c1ccccc1) is 552 nm.
Consider `c1ccc(-c2nc(-c3ccc(N4c5ccccc5Oc5ccccc54)cc3)nn2-c2ccc(N3c4ccccc4Oc4ccccc43)cc2)nc1`, for which the emission maximum (in ClCCl) was 490 nm.
Where the note is “in Cc1ccccc1”, `N#Cc1cc(-n2c3ccccc3c3ccccc32)nc(-n2c3ccccc3c3ccccc32)n1` returned an emission maximum of 471 nm.
Turning to `Cc1cc(C)c(B(c2c(C)cc(C)cc2C)c2c(C)cc(-n3c4ccc(N(c5ccccc5)c5ccccc5)cc4c4cc(N(c5ccccc5)c5ccccc5)ccc43)cc2C)c(C)c1`, the emission maximum (in Cc1ccccc1) was found to be 495 nm and the emission maximum under setting [1] amounted to 487 nm.
`CCCCn1c2ccc(C#Cc3cccs3)cc2c2c1c1c3ccc(C#Cc4cccs4)cc3n(CCCC)c1c1c3ccc(C#Cc4cccs4)cc3n(CCCC)c21` yielded an emission maximum (in C1CCOC1) of 430 nm.
Take `COc1ccc(/C=C/C2=CC(/C=C/c3ccc(OC)c4ccccc34)=[O+][B-](F)(F)O2)c2ccccc12`: the emission maximum was found to be 651 nm (in CC#N); 622 nm (in CC(C)=O); 590 nm (in CCOC(C)=O); 587 nm (in CCOCC); 561 nm (in ClC(Cl)(Cl)Cl); 616 nm (in ClCCl).
In turn, `c1cc2ccc1-c1ccc(cc1)-c1ccc(s1)-c1ccc(cc1)-c1ccc(cc1)-c1ccc(s1)-c1ccc(cc1)-c1ccc(cc1)-c1ccc(s1)-c1ccc(cc1)-c1ccc(cc1)-c1ccc-2s1` displayed an emission maximum (in C1CCOC1) of 472 nm.
As to `Oc1ccccc1/C=N/c1ccccc1/N=C/c1ccccc1O`, for the setting “in CC#N”, the emission maximum is 545 nm and 458 nm.
For `C(=C(c1ccccc1)c1ccccc1)c1ccc(-c2cc(-c3ccc(C=C(c4ccccc4)c4ccccc4)cc3)c(-c3ccc(C=C(c4ccccc4)c4ccccc4)cc3)cc2-c2ccc(C=C(c3ccccc3)c3ccccc3)cc2)cc1`, under “in C1CCOC1”, the emission maximum worked out at 440 nm.

The values above are taken from the Deep4Chem optical property database.
